One assay relates to ZR-75-1. As to the kind of experiment: Caspase cascade activation assay in ZR-75-1 cells (N-(Ac-DEVD)-N'-ethoxycarbonyl-R110 fluorogenic substrate). The assay is classed as cell-based. As to conditions: ZR-75-1 human breast cancer cells, 24 h incubation; for Caspase activity (Ratio): ratio of net RFU of test compound to control; for EC50: sigmoidal dose-response, read-out: Caspase potency EC50. The method, then: (§1) Human breast cancer cell lines T-47D and ZR-75-1 were grown according to media component mixtures designated by American Type Culture Collection+10% FCS (Invitrogen Corporation), in a 5% CO2-95% humidity incubator at 37° C. T-47D and ZR-75-1 cells were maintained at a cell density between 30 and 80% confluency at a cell density of 0.1 to 0.6×10^6 cells/mL. Cells were harvested at 600×g and resuspended at 0.65×10^6 cells/mL into appropriate media+10% FCS. An aliquot of 45 μl of cells was added to a well of a 96-well microtiter plate containing 5 μl of a 10% DMSO in RPMI-1640 media solution containing about […] of 2-amino-3-cyano-4-(5-methyl-pyridin-3-yl)-7-methyl-4H-pyrrolo[2,3-h]chromene (Example 10) or other test compound (0.016 to 1 μM final). An aliquot of 45 μl of cells was added to a well of a 96-well microtiter plate containing 5 μl of a 10% DMSO in RPMI-1640 media solution without test compound as the control sample. The samples were mixed by agitation and then incubated at 37° C. for 24 h in a 5% CO2-95% humidity incubator. After incubation, the samples were removed from the incubator and 50 μl of a solution containing 20 μM of N-(Ac-DEVD)-N′-ethoxycarbonyl-R110 (SEQ ID No:1) fluorogenic substrate (Cytovia, Inc.; U.S. Pat. No. 6,335,429), 20% sucrose (Sigma), 20 mM DTT (Sigma), 200 mM NaCl (Sigma), 40 mM Na PIPES buffer pH 7.2 (Sigma), and 500 μg/ml lysolecithin (Calbiochem) was added. The samples were mixed by agitation and incubated at room temperature. Using a fluorescent plate reader (Model 1420 Wallac Instruments), an initial reading (T=0) was made approximately 1-2 min after addition of the substrate solution, employing excitation at 485 nm and emission at 530 nm, to determine the background fluorescence of the control sample. After the 3 h incubation, the samples were read for fluorescence as above (T=3 h).
(§2) The Relative Fluorescence Unit values (RFU) were used to calculate the sample readings as follows: RFU(T=3h)−Control RFU(T=0)=Net RFU(T=3h) The activity of caspase cascade activation was determined by the ratio of the net RFU value for 2-amino-3-cyano-4-(5-methyl-pyridin-3-yl)-7-methyl-4H-pyrrolo[2,3-h]chromene or other test compound to that of control samples. The EC50 (nM) was determined by a sigmoidal dose-response calculation (Prism 2.0, GraphPad Software Inc.).

The subject of the next assay is T-47D. As to the kind of experiment: Caspase cascade activation assay in T-47D cells (N-(Ac-DEVD)-N'-ethoxycarbonyl-R110 fluorogenic substrate). Particulars: T-47D human breast cancer cells, 24 h incubation; for EC50: sigmoidal dose-response, read-out: Caspase potency EC50; for Caspase activity (Ratio): ratio of net RFU of test compound to control. The assay is classed as cell-based. The protocol: as §1, §2

This is an account of results in patent publication US7528164B2, “Substituted 4-aryl-4h-pyrrolo[2,3-h]chromenes and analogs as activators of caspases and inducers of apoptosis and the use thereof” (Cytovia, Inc., priority 2002, dated 2009).

Like-named read-outs stand apart in the source and are kept apart here.

Broadly, the EC50 is the midpoint of the concentration-response curve.

On to `Cc1cncc(C2C(C#N)=C(N)Oc3c2ccc2c3ccn2CO)c1` (stereo not drawn) [Example 20, 2-Amino-3-cyano-4-(5-methyl-pyridin-3-yl)-7-hydroxymethyl-4H-pyrrolo[2,3-h]chromene], for which the “Caspase activity (Ratio)” value in the assay with ZR-75-1 turned out to be 6.3; with T-47D, 4.7. Also, the EC50 in the assay with ZR-75-1 amounted to 2.4 nM; in the assay on T-47D (T47D), 3.7 nM.
The matching figures for `Cn1ccc2c3c(ccc21)C(c1ccc(F)c(Br)c1)C(C#N)=C(N)O3` (stereo not drawn) [Example 40I, 2-Amino-3-cyano-4-(3-bromo-4-fluorophenyl)-7-methyl-4H-pyrrolo[2,3-h]chromene]: 4.4, 3.9, 14 nM and 29 nM.
Take `Cn1ccc2c3c(ccc21)C(c1cccc(Cl)c1)C(C#N)=C(N)O3` (stereo not drawn) [Example 40C, 2-Amino-3-cyano-4-(3-chlorophenyl)-7-methyl-4H-pyrrolo[2,3-h]chromene]: the “Caspase activity (Ratio)” value in the assay on ZR-75-1 was found to be 2.7; with T-47D it was 4.0. Moreover, the EC50 is 7.9 nM in the assay on ZR-75-1 and 14 nM with T-47D (T47D).
As for `CC(C)n1ccc2c3c(ccc21)C(c1cc(Cl)cc(Cl)c1)C(C#N)=C(N)O3` (stereo not drawn) [Example 42, 2-Amino-3-cyano-4-(3,5-dichloro-phenyl)-7-isopropyl-4H-pyrrolo [2,3-h]chromene], the “Caspase activity (Ratio)” value in the assay with ZR-75-1 was determined as 2.6; with T-47D, 1.8. For the same molecule, the EC50 with ZR-75-1 was 57 nM; with T-47D (T47D), more than 100 nM.
Take `Cn1ccc2c3c(ccc21)C(c1cncc(C#N)c1)C(C#N)=C(N)O3` (stereo not drawn) [Example 1, 2-Amino-4-(5-cyano-pyridin-3-yl)-3-cyano-7-methyl-4H-pyrrolo[2,3-h]chromene]: the “Caspase activity (Ratio)” value with ZR-75-1 amounted to 5.2; in the assay on T-47D it was 8.3. For the same molecule, the EC50 with ZR-75-1 worked out at 6.5 nM; in the assay with T-47D (T47D) it was 25.5 nM.
The matching figures for `Cn1ccc2c3c(ccc21)C(c1cncc(Cl)c1)C(C#N)=C(N)O3` (stereo not drawn) [Example 7, 2-Amino-4-(5-chloro-pyridin-3-yl)-3-cyano-7-methyl-4H-pyrrolo[2,3-h]chromene]: 13.1, 5.1, 2.7 nM and 6.7 nM.
`COc1cc(C2C(C#N)=C(N)Oc3c2ccc2c3ccn2C)cc(Br)c1OC(C)=O` (stereo not drawn) [Example 22, 2-Amino-4-(4-acetoxy-3-bromo-5-methoxyphenyl)-3-cyano-7-methyl-4H-pyrrolo[2,3-h]chromene]: the “Caspase activity (Ratio)” value in the assay with ZR-75-1 is given as 7.2; in the assay with T-47D, 5.3. The EC50 with ZR-75-1 turned out to be 2 nM; in the assay with T-47D (T47D), 3.4 nM.
Consider `Cn1ccc2c3c(ccc21)C(c1cccc(F)c1)C(C#N)=C(N)O3` (stereo not drawn) [Example 40A, 2-Amino-3-cyano-4-(3-fluorophenyl)-7-methyl-4H-pyrrolo[2,3-h]chromene], for which the figures for the “Caspase activity (Ratio)” value in the assay with ZR-75-1 and with T-47D were 4.1 and 5.1, respectively. Also, the EC50 with ZR-75-1 amounted to 7.2 nM; in the assay on T-47D (T47D) it was 14 nM.
In the case of `COc1cc(C2C(C#N)=C(N)Oc3c2ccc2c3ccn2CC2CO2)cc(Br)c1OC` (stereo not drawn) [Example 19, 2-Amino-4-(3-bromo-4,5-dimethoxyphenyl)-3-cyano-7-oxiranylmethyl-4H-pyrrolo[2,3-h]chromene], the results for the “Caspase activity (Ratio)” value in the assay with ZR-75-1 and in the assay with T-47D were 11.7 and 10.2, respectively. For the same molecule, the EC50 is 107 nM in the assay with ZR-75-1 and 231 nM with T-47D (T47D).
Consider `Cn1ccc2c3c(ccc21)C(c1ccc(Cl)c(F)c1)C(C#N)=C(N)O3` (stereo not drawn) [Example 40H, 2-Amino-3-cyano-4-(3-fluoro-4-chlorophenyl)-7-methyl-4H-pyrrolo[2,3-h]chromene], for which the “Caspase activity (Ratio)” value is recorded as 6.0 with ZR-75-1 and 1.3 in the assay on T-47D. The EC50 is 56 nM in the assay on ZR-75-1 and more than 100 nM in the assay with T-47D (T47D).
`N#CC1=C(N)Oc2c(ccc3c2ccn3CO)C1c1cncc(Br)c1` (stereo not drawn) [Example 21, 2-Amino-4-(5-bromo-pyridin-3-yl)-3-cyano-7-hydroxymethyl-4H-pyrrolo[2,3-h]chromene]: the “Caspase activity (Ratio)” value in the assay with ZR-75-1 is reported as 4.4; with T-47D, 2.2. Besides, the values for the EC50 in the assay with ZR-75-1 and in the assay on T-47D (T47D) were 1.6 nM and 3 nM, respectively.
For `Cn1ccc2c3c(ccc21)C(c1cccc(Br)c1)C(C#N)=C(N)O3` (stereo not drawn) [Example 29, 2-Amino-3-cyano-4-(3-bromophenyl)-7-methyl-4H-pyrrolo[2,3-h]chromene] the same measures were 6.3, 3.3, 5.7 nM and 12 nM.
Turning to `COc1cc(OC)cc(C2C(C#N)=C(N)Oc3c2ccc2c3ccn2CO)c1` (stereo not drawn) [Example 34, 2-Amino-3-cyano-4-(3,5-dimethoxyphenyl)-7-hydroxymethyl-4H-pyrrolo [2,3-h]chromene], the “Caspase activity (Ratio)” value is recorded as 3.9 in the assay with ZR-75-1 and 3.3 in the assay on T-47D. For the same molecule, the EC50 in the assay on ZR-75-1 came to 6.5 nM; in the assay on T-47D (T47D), 7.1 nM.
For `COc1cc(C2C(C#N)=C(N)Oc3c2ccc2c3ccn2C(C)C)cc(Br)c1OC` (stereo not drawn) [Example 43, 2-Amino-3-cyano-4-(3-bromo-4,5-dimethoxy-phenyl)-7-isopropyl-4H-pyrrolo[2,3-h]chromene], the figures for the “Caspase activity (Ratio)” value in the assay on ZR-75-1 and in the assay with T-47D were 6.3 and 2.5, respectively. Further, the EC50 with ZR-75-1 was determined as 55 nM; in the assay with T-47D (T47D) it was 58 nM.
For `Cn1ccc2c3c(ccc21)C(c1ccc(F)c(C#N)c1)C(C#N)=C(N)O3` (stereo not drawn) [Example 40J, 2-Amino-3-cyano-4-(3-cyano-4-fluorophenyl)-7-methyl-4H-pyrrolo[2,3-h]chromene] the same measures were 5.8, 3.6, 14 nM and 29 nM.
As for “2-Amino-4-(3-bromo-4,5-dimethoxyphenyl)-3-cyano-7-methyl-4H-imidazo[4,5-h]chromene [Example 12]”, in the assay on ZR-75-1, the “Caspase activity (Ratio)” value was 8.5 and the EC50 worked out at 1.5 nM. Besides, in the assay on T-47D, the “Caspase activity (Ratio)” value worked out at 5.4 and the EC50 worked out at 1.6 nM.
On to `CN1CCc2c1ccc1c2OC(N)=C(C#N)C1c1cc(F)cc(F)c1` (stereo not drawn) [Example 35, 2-Amino-3-cyano-4-(3,5-difluorophenyl)-8,9-dihydro-7-methyl-4H-pyrrolo [2,3-h]chromene], for which the figures for the “Caspase activity (Ratio)” value with ZR-75-1 and in the assay on T-47D were 5.5 and 4.3, respectively. For the same molecule, the EC50 in the assay on ZR-75-1 turned out to be 10 nM; in the assay with T-47D (T47D) it was 28 nM.
Turning to `Cn1ccc2c3c(ccc21)C(c1ccc([N+](=O)[O-])s1)C(C#N)=C(N)O3` (stereo not drawn) [Example 37, 2-Amino-4-(5-nitro-thiophene-2-yl)-3-cyano-7-methyl-4H-pyrrolo[2,3-h]chromene], the entries for the “Caspase activity (Ratio)” value with ZR-75-1 and in the assay on T-47D were 6.7 and 2.0, respectively. For the same molecule, the EC50 with ZR-75-1 is 36 nM; with T-47D (T47D), more than 100 nM.
On to `COc1cc(C2C(C#N)=C(N)Oc3c2ccc2c3ccn2C)cc(I)c1OC` (stereo not drawn) [Example 31, 2-Amino-3-cyano-4-(4,5-dimethoxy-3-iodophenyl)-7-methyl-4H-pyrrolo[2,3-h]chromene], for which the “Caspase activity (Ratio)” value with ZR-75-1 was determined as 4.3; in the assay with T-47D, 6.3. In addition, the EC50 in the assay with ZR-75-1 is 3.7 nM; in the assay with T-47D (T47D), 4.9 nM.
The matching figures for `COc1cc(C2C(C#N)=C(N)Oc3c2ccc2c3ccn2C)cc(Br)c1OC` (stereo not drawn) [Example 16, 2-Amino-4-(3-bromo-4,5-dimethoxyphenyl)-3-cyano-7-methyl-4H-pyrrolo[2,3-h]chromene]: 11.7, 8.1, 1 nM and 1.6 nM.
With `COc1cc(C2C(C#N)=C(N)Oc3c2ccc2c3ccn2C)cc(OC)c1OC` (stereo not drawn) [Example 24, 2-Amino-3-cyano-4-(3,4,5-trimethoxyphenyl)-7-methyl-4H-pyrrolo[2,3-h]chromene], the figures for the “Caspase activity (Ratio)” value with ZR-75-1 and in the assay with T-47D were 7.1 and 5.5, respectively. The EC50 with ZR-75-1 stood at 2.2 nM; in the assay on T-47D (T47D) it was 3.4 nM.
